Data reported in patent US8192962B2, “Processes for detecting toxic substances” (Daikin Industries, Ltd., priority 2001, dated 2012).

Test system: Unknown protein yeast genes
Assay: DNA chip mRNA expression in yeast, unknown protein yeast genes (Table 1)
Format: cell-based, Saccharomyces cerevisiae S288C
Procedure, shortened: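 S. cerevisiae S288C grown at 25° C in YPD were exposed in log phase for two hours to one toxic chemical at a growth-inhibiting, non-lethal concentration; untreated cells served as control. Poly(A) mRNA was reverse-transcribed with Cy3/Cy5-dUTP and hybridized to a whole-genome yeast DNA chip at 65° C for over 12 hours; values are fluorescence ratios versus untreated.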

## C[S+](C)[O-] [(15), dimethylsulfoxide]
Yeast gene YAL018C
  The level of expressed mRNA in the presence of chemical substance/The level of expressed mRNA in the absence of chemical substance: 6.9
Yeast gene YAL034C
  The level of expressed mRNA in the presence of chemical substance/The level of expressed mRNA in the absence of chemical substance: 1.4
Yeast gene YAR031W
  The level of expressed mRNA in the presence of chemical substance/The level of expressed mRNA in the absence of chemical substance: 0.9
Yeast gene YAR064W
  The level of expressed mRNA in the presence of chemical substance/The level of expressed mRNA in the absence of chemical substance: 1.9
Yeast gene YBL048W
  The level of expressed mRNA in the presence of chemical substance/The level of expressed mRNA in the absence of chemical substance: 4.1
Yeast gene YBL107C
  The level of expressed mRNA in the presence of chemical substance/The level of expressed mRNA in the absence of chemical substance: 1.4
Yeast gene YBR012C
  The level of expressed mRNA in the presence of chemical substance/The level of expressed mRNA in the absence of chemical substance: 1.1
Yeast gene YBR062C
  The level of expressed mRNA in the presence of chemical substance/The level of expressed mRNA in the absence of chemical substance: 0.7
Yeast gene YBR101C, incubated two hours with substance
  The level of expressed mRNA in the presence of chemical substance/The level of expressed mRNA in the absence of chemical substance: 0.5
Yeast gene YBR287W
  The level of expressed mRNA in the presence of chemical substance/The level of expressed mRNA in the absence of chemical substance: 1.3
Yeast gene YCR013C
  The level of expressed mRNA in the presence of chemical substance/The level of expressed mRNA in the absence of chemical substance: 1.6
Yeast gene YDL027C
  The level of expressed mRNA in the presence of chemical substance/The level of expressed mRNA in the absence of chemical substance: 1.4
Yeast gene YDL110C
  The level of expressed mRNA in the presence of chemical substance/The level of expressed mRNA in the absence of chemical substance: 1.3
Yeast gene YDL169C
  The level of expressed mRNA in the presence of chemical substance/The level of expressed mRNA in the absence of chemical substance: 2.2
Yeast gene YDL222C, incubated two hours with chemical substance
  The level of expressed mRNA in the presence of chemical substance/The level of expressed mRNA in the absence of chemical substance: 7.1
Yeast gene YDR070C
  The level of expressed mRNA in the presence of chemical substance/The level of expressed mRNA in the absence of chemical substance: 2.1
Yeast gene YDR078C, incubated two hours with substance
  The level of expressed mRNA in the presence of chemical substance/The level of expressed mRNA in the absence of chemical substance: 0.5
Yeast gene YDR128W
  The level of expressed mRNA in the presence of chemical substance/The level of expressed mRNA in the absence of chemical substance: 1.4
Yeast gene YDR202C, incubated two hours with substance
  The level of expressed mRNA in the presence of chemical substance/The level of expressed mRNA in the absence of chemical substance: 0.5
Yeast gene YDR210W
  The level of expressed mRNA in the presence of chemical substance/The level of expressed mRNA in the absence of chemical substance: 1.0
Yeast gene YDR214W
  The level of expressed mRNA in the presence of chemical substance/The level of expressed mRNA in the absence of chemical substance: 1.1
Yeast gene YDR250C
  The level of expressed mRNA in the presence of chemical substance/The level of expressed mRNA in the absence of chemical substance: 0.7
Yeast gene YDR278C
  The level of expressed mRNA in the presence of chemical substance/The level of expressed mRNA in the absence of chemical substance: 0.7
Yeast gene YDR435C
  The level of expressed mRNA in the presence of chemical substance/The level of expressed mRNA in the absence of chemical substance: 0.6
Yeast gene YDR476C
  The level of expressed mRNA in the presence of chemical substance/The level of expressed mRNA in the absence of chemical substance: 2.2
Yeast gene YER037W
  The level of expressed mRNA in the presence of chemical substance/The level of expressed mRNA in the absence of chemical substance: 0.8
Yeast gene YER106W, incubated two hours with chemical substance
  The level of expressed mRNA in the presence of chemical substance/The level of expressed mRNA in the absence of chemical substance: 6.8
Yeast gene YER124C, incubated two hours with substance
  The level of expressed mRNA in the presence of chemical substance/The level of expressed mRNA in the absence of chemical substance: 0.5
Yeast gene YER182W, incubated two hours with substance
  The level of expressed mRNA in the presence of chemical substance/The level of expressed mRNA in the absence of chemical substance: 0.5
Yeast gene YFL024C
  The level of expressed mRNA in the presence of chemical substance/The level of expressed mRNA in the absence of chemical substance: 0.9
Yeast gene YGL121C
  The level of expressed mRNA in the presence of chemical substance/The level of expressed mRNA in the absence of chemical substance: 1.6
Yeast gene YGR035C
  The level of expressed mRNA in the presence of chemical substance/The level of expressed mRNA in the absence of chemical substance: 0.3
Yeast gene YGR110W
  The level of expressed mRNA in the presence of chemical substance/The level of expressed mRNA in the absence of chemical substance: 1.2
Yeast gene YGR139W
  The level of expressed mRNA in the presence of chemical substance/The level of expressed mRNA in the absence of chemical substance: 2.3
Yeast gene YGR211W, incubated two hours with substance
  The level of expressed mRNA in the presence of chemical substance/The level of expressed mRNA in the absence of chemical substance: 0.5
Yeast gene YGR284C
  The level of expressed mRNA in the presence of chemical substance/The level of expressed mRNA in the absence of chemical substance: 3.9
Yeast gene YHR029C
  The level of expressed mRNA in the presence of chemical substance/The level of expressed mRNA in the absence of chemical substance: 1.0
Yeast gene YHR054C
  The level of expressed mRNA in the presence of chemical substance/The level of expressed mRNA in the absence of chemical substance: 0.8
Yeast gene YHR095W
  The level of expressed mRNA in the presence of chemical substance/The level of expressed mRNA in the absence of chemical substance: 0.8
Yeast gene YHR209W
  The level of expressed mRNA in the presence of chemical substance/The level of expressed mRNA in the absence of chemical substance: 5.0
Yeast gene YIL117C, incubated two hours with chemical substance
  The level of expressed mRNA in the presence of chemical substance/The level of expressed mRNA in the absence of chemical substance: 7.5
Yeast gene YJL037W
  The level of expressed mRNA in the presence of chemical substance/The level of expressed mRNA in the absence of chemical substance: 1.6
Yeast gene YJL149W, incubated two hours with chemical substance
  The level of expressed mRNA in the presence of chemical substance/The level of expressed mRNA in the absence of chemical substance: 9.0
Yeast gene YJR030C
  The level of expressed mRNA in the presence of chemical substance/The level of expressed mRNA in the absence of chemical substance: 0.8
Yeast gene YJR085C, incubated two hours with substance
  The level of expressed mRNA in the presence of chemical substance/The level of expressed mRNA in the absence of chemical substance: 0.5
Yeast gene YKL071W
  The level of expressed mRNA in the presence of chemical substance/The level of expressed mRNA in the absence of chemical substance: 1.7
Yeast gene YKL107W
  The level of expressed mRNA in the presence of chemical substance/The level of expressed mRNA in the absence of chemical substance: 1.7
Yeast gene YKR040C
  The level of expressed mRNA in the presence of chemical substance/The level of expressed mRNA in the absence of chemical substance: 1.1
Yeast gene YKR075C
  The level of expressed mRNA in the presence of chemical substance/The level of expressed mRNA in the absence of chemical substance: 0.4
Yeast gene YLL056C
  The level of expressed mRNA in the presence of chemical substance/The level of expressed mRNA in the absence of chemical substance: 1.5
